According to US12043599B2, “Herbicidal compounds” (SYNGENTA PARTICIPATIONS AG, priority 2018, dated 2024):

Experiments:
Type in all cases: in vivo
Details in all cases: 250 g/h, evaluated after 13 days
[1] = test system: Echinochloa crus-galli (ECHCG); experiment: Pre-emergence herbicidal glasshouse test, percentage damage
In short: (§1)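 Spray solution: acetone/water (50:50), 0.5% Tween 20, applied at 250 g/h. Timing: 1 d (pre-emergence) or 8 d (post-emergence) after sowing. Readout: % plant damage at 13 d, banded 1–5.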

Setaria faberi (SETFA) [2] = experiment: as above
In short: as §1

Lolium perenne (LOLPE) [3] = experiment: as above
In short: as §1

[4] = test system: Alopecurus myosuroides (ALOMY); experiment: as above
In short: as §1

Avena fatua (AVEFA) [5] = experiment: as above
In short: as §1

Setaria faberi (SETFA) [6] = experiment: Post-emergence herbicidal glasshouse test, percentage damage
In short: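 Wheat, barley and Setaria faberi were sprayed post-emergence after 8 days' growth (24/16 °C, 14 h light, 65% humidity) with compound in acetone/water (50:50) containing 0.5% Tween 20, at the indicated rates. On wheat, compounds were also applied with cloquintocet-mexyl at 50 g/ha. Damage was scored after 13 days on a five-point scale (5=80-100% to 1=0-19%).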

[7] = test system: Echinochloa crus-galli (ECHCG); experiment: as above
In short: as §1

Lolium perenne (LOLPE) [8] = experiment: as above
In short: as §1

[9] = test system: Alopecurus myosuroides (ALOMY); experiment: as above
In short: as §1

Avena fatua (AVEFA) [10] = experiment: as above
In short: as §1

SMILES | ECHCG PRE percentage damage (five point scale) [1] | SETFA PRE percentage damage (five point scale) (Setaria faberi (SETFA) [2]) | LOLPE PRE percentage damage (five point scale) (Lolium perenne (LOLPE) [3]) | ALOMY PRE percentage damage (five point scale) [4] | AVEFA PRE percentage damage (five point scale) (Avena fatua (AVEFA) [5]) | SETFA POST percentage damage (five point scale) (Setaria faberi (SETFA) [6]) | ECHCG POST percentage damage (five point scale) [7] | LOLPE POST percentage damage (five point scale) (Lolium perenne (LOLPE) [8]) | ALOMY POST percentage damage (five point scale) [9] | AVEFA POST percentage damage (five point scale) (Avena fatua (AVEFA) [10])
CC#Cc1cc(C)c(C2=C(OC(=O)OC)CC3(CCN(C(=O)c4cccnn4)CC3)CC2=O)c(C)c1 [Compound P30] | 5 (5=80-100%) | 5 (5=80-100%) | 5 (5=80-100%) | 5 (5=80-100%) | 5 (5=80-100%) | 5 (5=80-100%) | 5 (5=80-100%) | 5 (5=80-100%) | 5 (5=80-100%) | 5 (5=80-100%)
CC#Cc1cc(C)c(C2C(=O)CC3(CCN(c4ncccn4)CC3)CC2=O)c(C)c1 [Compound A37] | 5 (5=80-100%) | 5 (5=80-100%) | 5 (5=80-100%) | 5 (5=80-100%) | 4 (4=60-79%) | 5 (5=80-100%) | 5 (5=80-100%) | 5 (5=80-100%) | 5 (5=80-100%) | 5 (5=80-100%)
CC#Cc1cc(C)c(C2C(=O)CC3(CCN(C(=O)NC(=O)C(C)(C)C)CC3)CC2=O)c(OC)c1 [Compound A77] | 5 (5=80-100%) | 5 (5=80-100%) | 5 (5=80-100%) | 5 (5=80-100%) | 5 (5=80-100%) | 5 (5=80-100%) | 5 (5=80-100%) | 5 (5=80-100%) | 5 (5=80-100%) | 5 (5=80-100%)
CC#Cc1cc(C)c(C2C(=O)CC3(CCN(C(=O)NC(=O)c4ccc(F)cn4)CC3)CC2=O)c(C)c1 [Compound A157] | 5 (5=80-100%) | 5 (5=80-100%) | 5 (5=80-100%) | 3 (3=40-59%) | 2 (2=20-39%) | 5 (5=80-100%) | 5 (5=80-100%) | 5 (5=80-100%) | 5 (5=80-100%) | 5 (5=80-100%)
CC#Cc1cc(C)c(C2C(=O)CC3(CCN(C(=O)Cc4ncccn4)CC3)CC2=O)c(C)c1 [Compound A102] | 5 (5=80-100%) | 5 (5=80-100%) | 5 (5=80-100%) | 2 (2=20-39%) | 5 (5=80-100%) | 5 (5=80-100%) | 5 (5=80-100%) | 5 (5=80-100%) | 5 (5=80-100%) | 5 (5=80-100%)
CC#Cc1cc(C)c(C2C(=O)CC3(CCN(C(=O)C4CC(C)=NO4)CC3)CC2=O)c(C)c1 (stereo not drawn) [Compound A187] | 5 (5=80-100%) | 5 (5=80-100%) | 5 (5=80-100%) | 4 (4=60-79%) | 5 (5=80-100%) | 5 (5=80-100%) | 5 (5=80-100%) | 5 (5=80-100%) | 5 (5=80-100%) | 5 (5=80-100%)
